Data reported in patent publication US20190292243A1, “PEPTIDES AND METHODS OF USE THEREOF” (Fred Hutchinson Cancer Research Center, priority 2016, published 2019).
Read-outs that look alike come from different tables or passages of the source. Marks after values point to notes of the source that are not given here. Bridge positions count the residues as written; N and C are the ends. Ends that are not written are not given here. Peptide text beside a SMILES is read from it. * marks the point of attachment. Me2Gly = CN(C)CC(=O)*

Assays:
[1] = Pharmacokinetics of radiolabeled peptide in plasma by liquid scintillation counting (PKSolver 2 compartment); assay type: in vivo, female Harlan athymic nude mice; design: AUC0-inf (area under the curve): unit not given here; details: 2 μCi/33 nmol
[2] = Description: (§1) This example describes analysis of the pharmacokinetics of a peptide of the disclosure. A ^14C radiolabeled peptide of SEQ ID NO: 15 (SEQ ID NO: 15-r) was administered to 6-10 week old female Harlan athymic mice at a dose of 2 μCi/33 nmol via intravenous administration, intraperitoneal administration, oral administration or subcutaneous administration. At each time point, urine was collected by massaging the abdomen and mice were subsequently euthanized by CO2 asphyxiation. Blood was collected by cardiac exsanguination following cessation of respiratory movement. Plasma was separated by centrifugation and frozen until further analysis. Radioactivity in biological samples (plasma or urine) was detected by liquid scintillation counting on a Beckman Scintillation counter at a read time of 10 minutes. For HPLC evaluation, urine and plasma samples were diluted 20 μl in 80 μl and analyzed on an Agilent analytical HPLC equipped with an inline Raytest scintillation detector. Pharmacokinetics analysis was performed using the PKSolver 2 compartment IV or extravascular bolus.
HPLC was used to separate peptide fragments and liquid scintillation counting was used to quantify the radioactive signal of intact peptides or peptide fragment. SEQ ID NO: 15-r was spiked in as a positive control for intact peptide and Glycine was spiked in as a negative control for metabolized peptide. […] SEQ ID NO: 15-r was spiked in as a positive control for intact peptide and Glycine was spiked in as a negative control for metabolized peptide. […] SEQ ID NO: 15-r was spiked in as a positive control for intact peptide and Glycine was spiked in as a negative control for metabolized peptide. […] SEQ ID NO: 15-r was spiked in as a positive control for intact peptide and Glycine was spiked in as a negative control for metabolized peptide.

[3] = remark: listed apart in the source
Description: as §1
SEQ ID NO: 15-r was spiked in as a positive control for intact peptide and Glycine was spiked in as a negative control for metabolized peptide. […] HPLC was used to separate peptide fragments and liquid scintillation counting was used to quantify the radioactive signal of intact peptides or peptide fragment. […] SEQ ID NO: 15-r was spiked in as a positive control for intact peptide and Glycine was spiked in as a negative control for metabolized peptide. […] SEQ ID NO: 15-r was spiked in as a positive control for intact peptide and Glycine was spiked in as a negative control for metabolized peptide. […] SEQ ID NO: 15-r was spiked in as a positive control for intact peptide and Glycine was spiked in as a negative control for metabolized peptide.

HeLa cells = assay: Uptake of peptide-AF647 conjugate in HeLa cells (fluorescence microscopy, flow cytometry, endocytosis inhibitors); assay type: cell-based; details: for effect of endocytic inhibitors on uptake of SEQ ID NO: 15-A: SEQ ID NO: 15-A at 4 μM, flow cytometry, pre-treatment of HeLa cells
Description: SEQ ID NO: 15-A and HIV-Tat-FITC, an HIV-Tat protein conjugated to a FITC fluorophore, were each dosed in HeLa cells at a concentration of 20 μM. The fluorescence image was taken on a Nikon Live microscope at 40× magnification, four hours after cells were dosed with SEQ ID NO: 15-A and HIV-Tat-FITC. The green fluorescence (FITC) and the red fluorescence (AF647) were located in different punctate regions, showing that the two molecules are localized in different vesicles.
Fluorescence was measured via flow cytometry and quantified to determine uptake of the peptide conjugate in cells.
SEQ ID NO: 15-A was dosed at a concentration of […] HIV-Tat-FITC was dosed at a concentration of 1 mM, and Dextran-Texas Red was dosed at a concentration of 25 mg/ml.

[4] = Folding of manufactured peptide variants (HPLC traces); assay type: physicochemical
From the text: Generally, the NMR solution structures of related structural homologs can be used to inform mutational strategies that may improve the folding, stability, manufacturability, while maintaining a particular biological function. They can be used to predict the 3D pharmacophore of a group of structurally homologous scaffolds, as wells as to predict possible graft regions of related proteins to create chimeras with improved properties. The general strategy for producing homologs can include identification of a charged surface patch of a protein, mutation of critical amino acid positions and loops, and testing of sequences. This strategy can be used to design peptides with improved properties or to correct deleterious mutations that complicate folding and manufacturability. […] Accordingly, three amino acid positions (R11, R13, and R31) were chosen to be individually mutated to improve stability, yielding peptides of SEQ ID NO: 18, SEQ ID NO: 20, and SEQ ID NO: 25.
This example illustrates the modification of a function of a peptide. A peptide of SEQ ID NO: 15 was modified at positively charge patches to give a peptide of SEQ ID NO: 1 and a peptide of SEQ ID NO: 2. The modified peptides were expressed recombinantly. Mutations at positively charged patches of a peptide of SEQ ID NO: 15 were not well tolerated as indicated by the lack of folding purity indicated by the HPLC traces in FIG. 15.

[5] = IP, 3 hr, 0 = no intact peptide was measured

CC(C)C[C@@H]1NC(=O)[C@H]([C@@H](C)O)NC(=O)[C@@H]2CSSC[C@@H]3NC(=O)[C@H]([C@@H](C)O)NC(=O)[C@H](CC(N)=O)NC(=O)[C@H](CSSC[C@@H](C(=O)N4CCC[C@H]4C(=O)N[C@@H](CC(N)=O)C(=O)N[C@@H](CCC(N)=O)C(=O)O)NC(=O)[C@H](C)NC(=O)[C@H](CCCNC(=N)N)NC1=O)NC(=O)[C@H](CCCNC(=N)N)NC(=O)[C@H](CC(=O)O)NC(=O)[C@H](CCCNC(=N)N)NC(=O)[C@H](Cc1ccccc1)NC(=O)[C@H]([C@@H](C)O)NC(=O)[C@H](CCCNC(=N)N)NC(=O)CNC(=O)[C@@H]1CCCN1C(=O)[C@H](CCC(=O)O)NC(=O)[C@@H](NC(=O)[C@H](CO)NC(=O)[C@H](CO)NC(=O)CN(C)C)CSSC[C@H](NC(=O)[C@H](CCCNC(=N)N)NC3=O)C(=O)NCC(=O)N[C@@H](C)C(=O)N[C@@H](CC(=O)O)C(=O)NCC(=O)N[C@@H](CCCNC(=N)N)C(=O)N[C@@H](CO)C(=O)N[C@@H](C)C(=O)N[C@@H](C)C(=O)N2 [SEQ ID NO: 15-r] (Me2Gly-SSCEPGRTFRDRCNTCRCGADGRSAACTLRACPNQ-OH; disulfide 3-18, 13-32, 16-27 (inferred); N-terminus and C-terminus assumed)
AUC0-inf (area under the curve) ([1]; IP): 25.59 | CL/F (drug clearance over time) ([1]; IP): 1.28 nmol/(pmol/μl)/h | Cmax (peak drug concentration) ([1]; IP): 5.23 pmol/µL | AUC0-inf (area under the curve) ([1]; IV): 19.08 | CL/F (drug clearance over time) ([1]; IV): 1.73 nmol/(pmol/μl)/h | Cmax (peak drug concentration) ([1]; IV): 33* pmol/μl | AUC0-inf (area under the curve) ([1]; Oral): 46 | CL/F (drug clearance over time) ([1]; Oral): 0.53 nmol/(pmol/μl)/h | Cmax (peak drug concentration) ([1]; Oral): 0.59 pmol/µL | AUC0-inf (area under the curve) ([1]; SC): 171 | CL/F (drug clearance over time) ([1]; SC): 0.144 nmol/(pmol/μl)/h | Cmax (peak drug concentration) ([1]; SC): 8.57 pmol/µL | percentage of AUC of intact peptide of the total radioactive signal (total AUC) in plasma ([2]; IP, 5 min): 94% | percentage of AUC of intact peptide of the total radioactive signal (total AUC) in plasma ([2]; IP, 30 min): 100% | percentage of AUC of intact peptide of the total radioactive signal (total AUC) in plasma ([2]; IP, 1 hr): 66% | percentage of AUC of intact peptide of the total radioactive signal (total AUC) in plasma [2, 5]: 0% | percentage of AUC of intact peptide of the total radioactive signal (total AUC) in plasma ([2]; IV, 5 min): 92% | percentage of AUC of intact peptide of the total radioactive signal (total AUC) in plasma ([2]; IV, 30 min): 100% | percentage of AUC of intact peptide of the total radioactive signal (total AUC) in plasma ([2]; PO, 8 hr): 45% | percentage of AUC of intact peptide of the total radioactive signal (total AUC) in plasma ([2]; SC, 5 min): 100% | percentage of AUC of intact peptide of the total radioactive signal (total AUC) in plasma ([2]; SC, 30 min): 88% | percentage of AUC of intact peptide of the total radioactive signal (total AUC) in plasma ([2]; SC, 1 hr): 50% | time by which intact peptide signal in plasma reached baseline ([2]; intraperitoneal injection): ≤ 3 h | time by which intact peptide signal in plasma reached baseline ([2]; intravenous injection): ≤ 3 h | intact peptide or breakdown products observed in plasma ([2]; oral administration): neither intact peptide or breakdown products of the peptide were observed in plasma | percentage of AUC of intact peptide of the total radioactive signal (total AUC) in urine ([3]; IP, 5 min): 60% | percentage of AUC of intact peptide of the total radioactive signal (total AUC) in urine ([3]; IP, 30 min): 49% | percentage of AUC of intact peptide of the total radioactive signal (total AUC) in urine [3, 5]: 0% | percentage of AUC of intact peptide of the total radioactive signal (total AUC) in urine ([3]; IP, 24 hr, 0 = no intact peptide was measured): 0% | percentage of AUC of intact peptide of the total radioactive signal (total AUC) in urine ([3]; IP, 48 hr, 0 = no intact peptide was measured): 0% | percentage of AUC of intact peptide of the total radioactive signal (total AUC) in urine ([3]; IV, 5 min): 77% | percentage of AUC of intact peptide of the total radioactive signal (total AUC) in urine ([3]; IV, 30 min): 47% | percentage of AUC of intact peptide of the total radioactive signal (total AUC) in urine ([3]; IV, 1 hr): 43% | percentage of AUC of intact peptide of the total radioactive signal (total AUC) in urine ([3]; IV, 3 hr, 0 = no intact peptide was measured): 0% | percentage of AUC of intact peptide of the total radioactive signal (total AUC) in urine ([3]; IV, 8 hr, 0 = no intact peptide was measured): 0% | percentage of AUC of intact peptide of the total radioactive signal (total AUC) in urine ([3]; IV, 24 hr, 0 = no intact peptide was measured): 0% | percentage of AUC of intact peptide of the total radioactive signal (total AUC) in urine ([3]; PO, 3 hr, 0 = no intact peptide was measured): 0% | percentage of AUC of intact peptide of the total radioactive signal (total AUC) in urine ([3]; PO, 8 hr, 0 = no intact peptide was measured): 0% | percentage of AUC of intact peptide of the total radioactive signal (total AUC) in urine ([3]; PO, 48 hr, 0 = no intact peptide was measured): 0% | percentage of AUC of intact peptide of the total radioactive signal (total AUC) in urine ([3]; SC, 5 min, 0 = no intact peptide was measured): 0% | percentage of AUC of intact peptide of the total radioactive signal (total AUC) in urine ([3]; SC, 30 min, 0 = no intact peptide was measured): 0% | percentage of AUC of intact peptide of the total radioactive signal (total AUC) in urine ([3]; SC, 1 hr, 0 = no intact peptide was measured): 0% | percentage of AUC of intact peptide of the total radioactive signal (total AUC) in urine ([3]; SC, 8 hr, 0 = no intact peptide was measured): 0% | percentage of AUC of intact peptide of the total radioactive signal (total AUC) in urine ([3]; SC, 48 hr, 0 = no intact peptide was measured): 0% | time by which intact peptide in urine dropped to baseline ([3]; intraperitoneal injection): ≤ 3 h | time by which intact peptide signal in urine reached baseline ([3]; intravenous injection): ≤ 3 h | intact peptide observed in urine ([3]; oral administration): intact peptide was not observed in urine | intact peptide observed in urine ([3]; subcutaneous administration): intact peptide was not observed in urine

CCCCC[C@@H](O)[C@H]1C(=O)O[C@H](C)[C@@H](O)/C=C/C=C/C=C/C=C/C=C(\C)[C@@H](O)C[C@H](O)C[C@H](O)C[C@H](O)C[C@H](O)C[C@H](O)C[C@@H]1O [filipin]
effect of endocytic inhibitors on uptake of SEQ ID NO: 15-A (HeLa cells): inhibit the uptake of SEQ ID NO: 15-A

GSSCEPGRTFRDRCNTCRCGADGRSAACTLEACPNQ [SEQ ID NO: 25]
folding of the manufactured peptide [4]: Improved folding

GSSCEPGRTFEDECNTCRCGADGRSAACTLEACPNQ [SEQ ID NO: 1]
folding of the manufactured peptide [4]: unable to fold

GSSCEPGRTFEDRCNTCRCGADGRSAACTLRACPNQ [SEQ ID NO: 18]
folding of the manufactured peptide [4]: Improved folding

methyl-beta-cyclodextrin [methyl-beta-cyclodextrin (MBCD)]
inhibition of uptake of SEQ ID NO: 15-A relative to dextran and HIV-Tat (HeLa cells; 2 mM MBCD pre-treatment of HeLa cells): inhibits uptake of SEQ ID NO: 15-A to a greater extent than dextran, a fluid-phase marker, or HIV-Tat | effect of endocytic inhibitors on uptake of SEQ ID NO: 15-A (HeLa cells): inhibit the uptake of SEQ ID NO: 15-A

SEQ ID NO: 15-A (GSSCEPGRTFRDRCNTCRCGADGRSAACTLRACPNQ; cysteine pairing not given here; also: conjugate A)
internalization by HeLa cells (fluorescence image) (HeLa cells; 20 μM, four hours after dosing, 40×): internalized by HeLa cells

GSSCEPGRTFADACNTCRCGADGRSAACTLAACPNQ [SEQ ID NO: 2]
folding of the manufactured peptide [4]: unable to fold

GSSCEPGRTFRDECNTCRCGADGRSAACTLRACPNQ [SEQ ID NO: 20]
folding of the manufactured peptide [4]: Improved folding
